# How the values were obtained:
# [1] = system: male Sprague-Dawley rats; experiment: Serum oxidative stress biomarkers SOD and CAT after 7 days of treatment; assay type: in vivo; details: rat serum, after 7 days of 6 mg/kg/day s.c., commercial kit, mean ± SD, n = 5; for Serum catalase (CAT) level: control 22.4 ± 3.79; for Serum superoxide dismutase (SOD) level: normal saline 37.36 ± 3.4
# Description: The serum levels of superoxide dismutase (SOD) and Catalase (CAT) in rats were analyzed to evaluate and compare the oxidative stress induced by the treatments. […] No significant reductions were detected in the serum SOD levels of the SDCS (38 ± 3.17 U/mL) and formulation (34.73 ± 5.17 U/mL) groups. […] The serum CAT levels in the treated rats followed a trend similar to that observed for the SOD levels (Figure 2D).
# (§1) The nephrotoxicity experiment of the PMB formulation was performed on 36 male rats that were randomly divided into four groups (n = 9). Randomization was performed using computer-generated random sequences in Microsoft Excel with a fixed seed value to ensure reproducibility. Block randomization was used to balance the number of animals per group. […] The PMB dose of 6 mg/kg/day (expressed as PMB equivalent) was selected based on previous pharmacokinetic and toxicity studies in rats, where this dose consistently produced measurable nephrotoxicity without lethality. […] The average weight gain of each group was recorded for the experiment. We randomized the treatment order and controlled the timing of measurements, and all researchers involved in the study were blinded to the intervention. The animals were euthanized 24 h after the last treatment with an intraperitoneal lethal dose of sodium pentobarbital (200 mg/kg). Blood samples were collected by cardiac puncture, and the serum was separated by centrifugation (3000× g for 15 min) and stored at −80 °C until assayed. Samples of the kidney, liver, spleen, lung, and heart tissues were carefully collected, weighed, and sectioned for histopathological analysis. Histological observation was performed to assess potential tissue damage and evaluate the extent of toxicity following the treatment.
# (§2) The serum levels of SOD and CAT were measured after the 7-day treatment period to investigate the oxidative properties of the treatments. The measurements were carried out using commercial kits according to the manufacturer’s instructions.
# [2] = PMB biodistribution in organs 24 h after subcutaneous dose (LC-MS); assay type: in vivo; details: rat, 6 mg/kg s.c., kidney homogenate 24 h post-dose, mean ± SD, n = 4
# From the text: (§3) The serum concentrations reported represent the free (unbound) PMB fraction determined after protein precipitation and filtration, which is the pharmacologically active component.
# (§4) For the biodistribution study, a sample size of four rats per group was chosen as a preliminary exploratory analysis to determine major organ distribution trends. This sample size was consistent with previous biodistribution studies involving polymyxins and sufficient to identify statistically meaningful differences in renal accumulation [7]. […] PMB concentrations were measured in LC-MS for free (unbound) fraction of serum and tissue homogenates after protein precipitation.
# (§5) The PMB was quantified using an LC-MS/ion trap time-of-flight system (Shimadzu, Tokyo, Japan) equipped with a C18 column (2.1 mm id × 150 mm, 2.7 µm particle size; Thermo Fisher Scientific, Scoresby, Australia). […] A quantity of 400 µL of supernatant was added to 600 µL of the mobile phase. A known amount of standard PMB in blank serum was prepared using the same method to produce a calibration curve of PMB and quantification was performed using colistin sulfate (1 µg/mL) as the internal standard. The monitored mass transitions were m/z 602.4 → 101.1 for PMB and m/z 585.5 → 101.1 for colistin. […]
# [3] = system: rat kidney, liver, lung and spleen tissue; experiment: Histopathological examination (H&E) of kidney, liver, lung and spleen; assay type: in vivo; details: 7 days of 6 mg/kg/day s.c., result in words
# Description: An H&E assay was performed on the collected tissues of all animals to evaluate PMB-induced nephrotoxicity and organ damage. The kidney histopathological results from the H&E assay of the renal cortex and medulla in the treated animals are shown in Figure 3.
# Liver histopathological alterations in the central vein area and portal triad area of the treated rats are shown in Figure 4A and Figure 4B, respectively.
# Histopathological alterations in the spleen tissue of the treated animals were also examined (Figure 4D).
# as §1
# Excess fat from the kidney, liver, spleen, lung, and heart tissues was removed through dissection and trimming. All samples were preserved in 10% buffered formalin using a fixative volume at least 10 times the tissue volume for three days. Subsequently, the tissues were dehydrated through a graded series of ethanol (70%, 80%, 95%, and 100%) using a tissue processor (LEICA TP 1020, Leica Microsystems GmbH, Wetzlar, Germany), with each concentration step lasting for 60 min. Following this, the tissues were embedded in Paraplast blocks using a tissue embedder (LEICA EG 1160, Leica Microsystems GmbH, Wetzlar, Germany). Thin sections that measured 5 μm in thickness were obtained using an automatic microtome. The slides were stained with Harris’ hematoxylin and eosin (H&E) and examined under an Olympus DP73 microscope (Olympus, Tokyo, Japan) equipped with cellSens software version 6.1.4.2. Histopathological analysis was performed by an investigator who was blinded to the treatment groups.
# [4] = system: male Sprague-Dawley rats; experiment: Body weight and body weight gain in the 7-day nephrotoxicity study; assay type: in vivo; details: rat
# Description: After seven days of treatment with 6 mg/kg of the PMB and PMB formulation, the weight progression of the rats in each group was measured and recorded. All 36 rats successfully acclimated and reached the target body weight of 110 g within the 7-day period. No animals were excluded from the study. The results in Figure 1A show the weight changes measured on day 0, day 4, and day 7 of administration.
# The animal study was approved by the Animal Ethics Committee of Prince of Songkla University (Project License No. MHESI 68014/675, Ref. AR042/2024). The animals were housed in a controlled environment with a temperature of 22 ± 2 °C, relative humidity of 50 ± 10%, and a 12/12-h light/dark cycle. They were provided with a standard laboratory rodent diet and water ad libitum. The study was conducted on male outbred Sprague-Dawley rats (5–7 weeks old, 130–170 g) that were obtained from the National Laboratory Animal Center, Mahidol University, Nakorn Pathom, Thailand. The rats were fed the standard feed protocol by the Southern Laboratory Animal Facility, Faculty of Sciences, Prince of Songkla University. Rats were allowed to acclimate for 7 days prior to the experiment.
# as §1, with “Blood samples were collected by cardiac puncture, and the serum was separated by centrifugation (3000× g for 15 min) and stored at −80 °C until assayed. Samples of the kidney, liver, spleen, lung, and heart tissues were carefully collected, weighed, and sectioned for histopathological analysis. Histological observation was performed to assess potential tissue damage and evaluate the extent of toxicity following the treatment.” left out
# [5] = PMB serum concentration after a single subcutaneous dose (LC-MS); assay type: in vivo; details: rat, single 6 mg/kg s.c., 4 h post-dose, PMB after protein precipitation, mean ± SD, n = 4
# From the text: as §3, §4, §5
# [6] = system: rat kidney function; experiment: Kidney function: serum BUN and creatinine after 7 days of treatment; assay type: in vivo; details: after 7 days of 6 mg/kg/day s.c., autoanalyzer, mean ± SD; for Serum creatinine (Cr): n = 5, normal saline 2.08 ± 1.08; for Serum blood urea nitrogen (BUN): n = 5, normal saline 13.8 ± 1.3
# Description: After seven days of treatment, the serum levels of blood urea nitrogen (BUN) and Cr were assessed in the rats to investigate their kidney function. […] The PMB group had slightly elevated Cr levels (2.28 ± 0.31 mg/dL) (Figure 2B).
# as §1, §2
# [7] = cited from earlier work
# From the text: Nephrotoxicity remains a significant challenge for PMB. The prevalence of nephrotoxicity ranges from 10% to 60% despite the effectiveness of PMB in treating multidrug-resistant Gram-negative bacterial infections. The amphipathic properties of polymyxins are also responsible for their nephrotoxicity where the cationic diaminobutyric acid (Dab) residues of PMB interact with anionic phospholipids (e.g., phosphatidylinositol, cardiolipin) on the membranes of renal tubular cells. This electrostatic interaction, combined with the insertion of the lipophilic tail into the lipid bilayer, dis ... || PMB undergoes extensive reabsorption in the renal tubule, and a very high concentration of PMB is found in human renal tubular cells compared to the extracellular concentration. The increased accumulation of PMB leads to cell swelling and lysis by disrupting the permeability of the renal tubular epithelial cell membrane. In our results, the administration of the PMB formulation increased the serum concentration profile of PMB.
Substance,Serum catalase (CAT) level [1],Serum superoxide dismutase (SOD) level [1],PMB concentration in the kidneys after 24 h [2],Kidney histopathology (renal cortex and medulla) [3],Liver histopathology (central vein and portal triad area) [3],Lung histopathology [3],Spleen histopathology [3],"Body weight gain compared with control ([4]; 6 mg/kg/day s.c. for 7 days, n = 9, result in words)","Body weight on day 4 ([4]; 6 mg/kg/day s.c., day 4 of 7, mean ± SD, n = 9, normal saline group 180.0 ± 11.83 g)","Body weight on day 7 ([4]; 6 mg/kg/day s.c., day 7, mean ± SD, n = 9, normal saline group 207.5 ± 11.62 g)",PMB serum concentration at 4 h [5],Serum creatinine (Cr) [6],Serum blood urea nitrogen (BUN) [6],Urinary recovery ([7]; animal models),PMB kidney/serum concentration ratio ([7]; another study)
Polymyxin B [PMB],9.5 ± 7.91 nmol/min/mL,22.87 ± 8.1 U/mL,3.73 ± 0.89 µg/g,Deformation of the glomeruli and congestion of the renal blood vessels,significant monocyte infiltration accompanied by loss of hepatocyte architecture and the presence of necrotic foci around the blood vessels,endothelial damage that was evidenced by an increased number of small pulmonary venules containing fibrin thrombi,numerous multinucleated giant cells,significant reduction in body weight gain,163.89 ± 15.37 g,191.67 ± 15.83 g,2.94 ± 0.23 µg/mL,2.28 ± 0.31 mg/dL,16.56 ± 1.59 mg/dL,< 5%,18 fold
Sodium Deoxycholate sulfate [SDCS],22.25 ± 6.38 nmol/min/mL,38 ± 3.17 U/mL,,normal,normal hepatic tissues,normal lung tissue,normal white and red pulp,,,,,2.06 ± 0.32 mg/dL,14.4 ± 2.07 mg/dL,,

# Reference: PMC12649575, “Assessment of Polymyxin B with Sodium Deoxycholate Sulfate Micelles in a Rat Model to Combat Polymyxin Nephrotoxicity” (Antibiotics, 2025)
